Results on two molecules are retold here after patent US5776957A, “Nornicotine enantiomers for use as a treatment for dopamine related conditions and disease states” (The University of Kentucky Research Foundation, priority 1996, dated 1998).

In series [1] the test system is mouse striatal synaptosomes. As to conditions: Grady et al., cited from earlier work.
The subject of series [2] is [3H]DA-preloaded rat striatal slices (nicotinic receptors). As to conditions: cited from earlier work.
The nature of series [3]: drug self-administration paradigm. The following applies: rats.
For series [4] the following is noted: cited from earlier work.
Series [5] relates to rat and mouse striatal synaptosomes. As to conditions: Rapier, El-Bizri, Rowell; cited from earlier work.
Series [6] can be described thus: Amphetamine drug discrimination (substitution tests). It is filed as in vivo, rat. The following applies: for amphetamine-correct responding reached by individual rats: any dose, none of the rats reached; for amphetamine-appropriate responding (partial substitution): nicotine 0.1-1.0 mg/kg, nornicotine 1-10 mg/kg; for relative potency, nicotine vs nornicotine: partial substitution for amphetamine. As for the experimental part: Rats were trained in on two-lever food-reinforced operant tasks to discriminate amphetamine (1 mg/kg) from saline. After discrimination training stabilized, test doses of amphetamine (0.0625-2.0 mg/kg), nicotine (0.1-1.0 mg/kg) or nornicotine (1-10 mg/kg) were assessed for their ability to substitute for the amphetamine training dose during brief test sessions in which food reinforcement was withheld.
Nine male Sprague-Hawley rats were obtained from Harlan Industries (Indianapolis, Ind.) and were caged individually with water continuously available. Food access was restricted in order to maintain body weights at approximately 80% of free-feeding weight. Prior to the start of the experiment, all rats received a single injection of amphetamine (1 mg.kg, IP) as part of an unrelated experiment. Apparatus Six operant chambers (ENV-001, Med Associates, St. Albans, Vt.) enclosed in a sound attenuating environment were used. Located in the bottom center of the front panel in each chamber was a 5×4.-cm opening to a recessed food tray. Two metal response levers were located on the front panel, one on each side of the food tray. The center of each lever was mounted 7.3 cm from the grid floor. A 28-Vcue light, 3 cm in diameter, was centered 6 cm above each lever. A personal computer, interfaced to the chamber with Med Associates equipment, controlled the experimental sessions and collected data.
The general procedures utilized to establish amphetamine discrimination were similar to those outlined previously (13). Briefly, rats were first given access to food pellets (45 mg sucrose pellet, Noyes Co., Lancaster, N.H.) dispensed noncontingently into the food tray with both levers present. One lever was then removed and the rat was shaped to depress the other lever for food reinforcement. Following this, rats received 15-min daily sessions in which the lever (left or right) available for food reinforcement was alternated daily. […] The start of each session was signaled by the onset of both cue lights mounted above the levers, and the termination of each session was signaled by the offset of these lights. This training phase was continued until the rat earned 20 reinforces on an FR25 schedule for two days.
Amphetamine discrimination training was conducted Monday through Friday. For this training, both levers were mounted in the chamber. Amphetamine (A; 1 mg/kg) or saline (S), was injected IP 15 min prior to the start of the session, with the order of injections being either AASS or SSAA. The left lever was designated as the amphetamine-correct lever for 4 rats, while the right lever was amphetamine -correct for 5 rats. On Monday, Wednesday and Friday, injection-appropriate responding was food-reinforcedon an FR25 schedule for the entire 15-min session. However, 2-min extinction periods were instituted at the beginning of sessions on Tuesday and Thursday (one amphetamine and one saline test per week) to assess the control of amphetamine (or saline) over responding. […] During the remaining 13 min of these sessions, contingent reinforcement for injection-appropriate responding was reinstated. This phase of training was continued until the rat completed the first FR25 on the correct lever for 10 consecutive sessions and also completed 80% or more responses on the injection-appropriate lever during 4 consecutive extinction periods.
The substitution phase was identical to the previously described amphetamine discrimination phase, except for the Friday session, which was decreased to a 4-min extinction session with no food available.

Series [7] is described as follows: NIC and metabolites in rat brain after s.c. injection of radiolabelled NIC. Type of series: in vivo. The text has this:
NIC metabolism studies involving HPLRC analysis invariably utilize NIC with a radiolabel (i.e., [^3 H], [^14 C] or [^11 C]) incorporated in the methyl group. However N-demethylated NIC metabolites (norNIC and norCOT) cannot be detected after injection of such radionuclides, since the label is lost in the formation of these metabolites. NIC and four NIC metabolites have recently been detected in rat brain 4 hr after s.c. injection of [2'-^14 C]NIC (FIG. 3, Table I). Three of these metabolites have been identified as COT, norNIC and norCOT. A fourth minor metabolite (Peak B) has not been completely identified but appears to be an N-demethylated metabolite, since it is not detected in the [^3 H-N-methyl]NIC studies.
COT, and therefore, is unlikely to originate from COT N-demethylation. 3-HydroxyCOT and its glucuronide conjugate were not detected as metabolites of either NIC or COT in brain, even though these are major biotransformation products in the periphery (Crooks, 1993).
It appears that NIC metabolites which accumulate with a time course that correlates with the development of behavioral sensitization to NIC have a role in eliciting sensitization to NIC. The inventors have detected NIC, COT, norNIC and norCOT in brain 4 hr following acute s.c. injection of (±)[2'-^14 C]NIC. S(-) [^3 H] -N-methyl]NIC is unsuitable for studying brain metabolism of NIC, since nor-metabolites (i.e., demethylated metabolites) cannot be detected due to [^3 H]-loss during metabolism (Crooks et al., 1995b, AP 7). Thus, commercially available (±)[2'-^14 C]NIC was used to determine NIC metabolites present in brain. This form of radiolabelled NIC provides a metabolically stable [^14 C]-label which allows measurement of all potential NIC metabolites.
A second "metabolite" (Peak A, FIG. 2) was also detected at each time point and most likely results from a combination of metabolic cleavage of the N-methyl group and dissociated-[^3 H], i e, Peak A represents an oxidized 1-carbon unit and indicates the extent of NIC N-demethylation. Note, in our subsequent studies with [2'-^14 C]NIC, Peak A was not observed, which is consistent with our interpretation of the results (Table 1).

In a further series the test system is rat striatal slices. The following applies: 0.1-100 μM, 15 min exposure, Dwoskin et al., 1993, cited from earlier work.
Series [8] is described as follows: hemodynamic function in conscious animals. It is filed as in vivo. As to conditions: behaviorally active doses.
The conditions of series [9]: cited from earlier work. The source holds these as a separate data set.
The test system of series [10] is nicotinic receptor sites in the brain. Nature of the series: displacement of nicotine from nicotinic receptor sites in the brain. Type of series: binding.
For series [11] the following is noted: rats; cited from earlier work.

“Also recorded” adds a separate entry of the source. Like-named read-outs stand apart in the source and are kept apart here.

One may read the EC50 as the concentration needed to bring the measured effect to its halfway point. With `CN1CCC[C@H]1c1cccnc1` [S(-) nicotine], the EC50 in series [1] (1992, read-out: EC50 for NIC-stimulated, MEC-sensitive [3H]overflow) is 480 nM. The 50% effective concentration (EC50) in series [1] (1994, 0.1-30 μM, 10 min exposure, read-out: EC50, peak DA release) is 330 nM. Further, the “plateau concentration of concentration-response curve” value in series [2] (Izenwasser et al. (1991), 10-min exposure) is 0.1 µM. The EC50 in series [2] (rat striatal slices, Sacaan et al. (1995), read-out: EC50 for NIC-evoked [3H]overflow) was 3700 nM. In addition, the “self-administration / substitution for amphetamine” value (from here on “self-administration / substitution”) in series [3] is “responding was established and maintained”. Also, the “cross-sensitization between nicotine and amphetamine” value in series [4] is recorded as “has not been observed”. The “plateau concentration of concentration-response curve” value in [5] was 1 to 100 µM. Besides, in series [6] (15 min), the “total number of lever presses” value is “significant decreases in total number of lever presses”. For the same molecule, in [6] (45 min), the “plateau of dose-effect curve, amphetamine-appropriate responding” value is 50 and the “total number of lever presses” value is on record as “significant decrease in total number of lever presses”. Moreover, in [6], the “amphetamine-correct responding reached by individual rats” value is on record as < 80%; the “amphetamine-appropriate responding (partial substitution)” value is listed as “approximately 50%”; the “relative potency, nicotine vs nornicotine” value is on record as “more potent than nornicotine”. Moreover, in series [6] (nicotine 1 mg/kg, 15 min), the amphetamine-appropriate responding entry was “Approximately 50%”. In [6] (nicotine 1 mg/kg, 45 min), the “amphetamine-appropriate responding (maximum)” value was “approximately 50%” and the “amphetamine-correct responses, individual rats” value is 31-59%. The “level in CNS at 4 hrs post-NIC-injection” value in series [7] (4 hrs) is given as “only low levels were detected”. The Tmax in series [7] (in vivo, rat brain, read-out: time of maximum uptake in brain) was 30 to 60 min.

On to `c1cncc([C@@H]2CCCN2)c1` [S(-) nornicotine, S-(-) nornicotine], for which the “endogenous DA release” value with rat striatal slices was “concentration-dependent and Ca+-dependent increase”. Further, the “endogenous DA release” value in the series on rat striatal slices (listed as S(-) enantiomer of norNIC) is “concentration-dependent and Ca^++ -dependent increase”. For the same molecule, the “antagonist sensitivity of effects” value in series [2] (Teng et al., 1996) is “inhibited by mecamylamine and DHβE”. For the same molecule, the “self-administration / substitution” value in series [3] (listed as S-(-)-nornicotine) was “self-administered; also recorded: substitutes for amphetamine self administration”. The “self-administration / substitution” value in series [3] (listed as norNIC) is on record as “reinforcing”. Besides, the “effect on hemodynamic function” value in series [8] was “no adverse effective on hemodynamic function”. Besides, the “detection in urine of human smokers” value in series [9] is “detectable in the urine of human smokers”. In addition, in [4] (behavioral sensitization), the “potency relative to nicotine” value is on record as “less potent than nicotine”. The “displacement of nicotine from nicotinic receptor sites” value in series [10] is listed as “cause displacement of nicotine”. For the same molecule, the “substitution for nicotine in drug discrimination” value in series [11] is reported as “substitutes fully for nicotine”. The “total number of lever presses” value in [6] (15 min) is “significant decreases in total number of lever presses”. Further, in series [6] (45 min), the “plateau of dose-effect curve, amphetamine-appropriate responding” value was determined as 50 and the “total number of lever presses” value was “significant decrease in total number of lever presses”. In series [6], the “amphetamine-correct responding reached by individual rats” value is given as < 80%; the “amphetamine-appropriate responding (partial substitution)” value is listed as “approximately 50%”; the “relative potency, nicotine vs nornicotine” value is given as “less potent than nicotine”. Besides, in series [6] (nornicotine 3 mg/kg, 15 min), the amphetamine-appropriate responding result is recorded as “Approximately 50%”. For the same molecule, in series [6] (nornicotine 10 mg/kg, 45 min), the “amphetamine-appropriate responding (maximum)” value is given as “approximately 50%” and the “amphetamine-correct responses, individual rats” value was 33-61%. For the same molecule, the “behavioral profile in drug discrimination” value in series [6] (rat, in vivo) is on record as “behavioral profile similar to nicotine”. Further, the “presence as metabolite in brain” value in series [7] (rat brain, after s.c. radiolabelled NIC) was “present in significant amounts in brain”.
